# Assay results reported in US20240027453A1, “METHOD FOR DETECTION AND QUANTITATIVE MONITORING OF INFECTIONS WITH HERPESVIRUSES” (The Trustees of Princeton University, priority 2020, published 2024).
# Like-named read-outs stand apart in the source and are kept apart here.
# Tested on: HCMV
# Type: cell-based
# Method: In example herpesvirus PRM assay methods shown herein, cell pellets were lysed in 2% SDS, 100 mM NaCl, 0.5 mM EDTA, 50 mM Tris, pH 8.2, and 50 μg of protein was reduced and alkylated with 25 mM TCEP and 50 mM CAM respectively for 20 min at 70° C. Proteins were then precipitated via methanol chloroform precipitation (Wessel & Flugg, Anal Biochem. 138(1):141-143, 1984), resuspended in 50 mM HEPES, pH 8.2 and digested overnight with trypsin (50:1 protein:enzyme w/w ratio). Digested peptides were desalted by SDB-RPS StageTip as previously described (Lum et al., Cell Syst., 7(6):[…], 2018; Greco et al., Methods Mol Biol 1410:39-63, 2016; Federspiel & Cristea, Methods Mol Biol., 1977:115-143, 2019).
# Peptides (1.0 μg on column) were analyzed by LC-MS/MS using a Dionex Ultimate 3000 UHPLC coupled online to an EASYSpray ion source and a Q Exactive HF. Peptides were separated on an EASYSpray C18 column (75 μm×25 cm) heated to 50° C. using a linear gradient of 5% B to 32% B over 60 min at a flow rate of 250 nL/min and were ionized at 1.7 kv. Mobile phase A consisted of 0.1% FA in H2O and mobile phase B consisted of 0.1% FA, 2.9% H2O in ACN.
# The PRM method was controlled by a peptide inclusion list with retention time windows of 6 min for selected precursor ions.
# The PRM assay was developed and analyzed using the open-source software Skyline (Maclean et al., Bioinformatics 26(7):966-968, 2010). Summed area under the curve of 3-4 transitions per peptide was used for quantitation. Targeted peptides were normalized to host protein loading control peptides. Peptide values for each sample were scaled to the average of each peptide across all runs. The average of multiple peptides was used as the inferred value for the protein measurement when more than one peptide was quantified (Federspiel et al., PLoS Biol. 17(9):e3000437. Doi: 10.1371/journal.pbio.3000437). PRM quantitation data were graphed using the Python Seaborn and Matplotlib libraries.
# MRC5 primary human fibroblasts (HFs) (ATCC CCL-171) were used as the model system for HSV-1 and HCMV infections and were cultured in complete growth medium (DMEM supplemented with 10% fetal bovine serum and 1% penicillin-streptomycin antibiotics) at 37° C. and 5% CO2. iSLK.219 cells harboring latent KSHV (a gift from Dr. Britt Glaunsinger, University of California, Berkeley) were grown in complete growth medium supplemented with 500 μg/ml hygromycin (ThermoFisher Scientific, 10687010) at 37° C. and 5% CO2. All cells were used for experiments within a maximum of 10 passages.
# Wild type HSV-1 strain 17+ (a gift from Beate Sodeik, Hannover Medical School, Hannover, Germany) was propagated as previously described (Diner et al., 2015). Briefly, PO stocks were generated by electroporating pBAC-HSV-1 into U-2 OS cells. […] In a similar manner, wild type HCMV strain AD169 was produced from BAC electroporation into HFs and working stocks were propagated by infecting HFs at a low level. In both cases, cell-associated virus was released by sonication, combined with supernatant virus, then concentrated by ultracentrifugation (20,000 rpm, 2 hours, 4° C. with SW28 swinging bucket rotor [Beckman Coulter]) over a 10% ficoll (HSV-1) or 20% sorbitol (HCMV) cushion. Virus stock titers were determined by plaque assay for HSV-1 or tissue culture infectious dose (TCID50) for HCMV and infections were performed at a multiplicity of infection (MOI) of 3.
# 12 hours prior to virus infection or reactivation, cells were treated with either the small molecule drug or DMSO/PBS control at an equivalent volume. […] For infection cycles lasting longer than 24 hours, small molecule drugs were re-added to the cell culture medium every 24 hours. Upon collection, cells were rinsed with PBS, scraped into a microcentrifuge tube, pelleted by centrifugation, and rinsed again with PBS.
structure (smiles),measurement,setting,value
Nc1c(S(=O)(=O)c2ccccc2)c2nc3ccccc3nc2n1-c1ccc(F)cc1 [CAY10602],HCMV UL122 (IE2) and UL123 (IE1) levels,,decreases
same,levels of HCMV viral immediate early proteins,,reduced
same,HCMV UL123 levels,"24 HPI, […] CAY10602, 50 μM trans-Resveratrol",unchanged
same,HCMV UL26 levels,"48 HPI, […] CAY10602, 50 μM trans-Resveratrol",decreased
same,HCMV viral protein production,by 48 HPI,global reduction
same,HCMV UL99 levels,"by 72 HPI, […] CAY10602, 50 μM trans-Resveratrol",robustly decreased
same,global decrease in HCMV viral protein levels,"by 120 HPI, […] CAY10602, 50 μM trans-Resveratrol",~70%
same,CVC2 (P16726) protein level,"timepoint 24, DE",0.01787
same,DBP (P17147) protein level,"timepoint 24, DE",0.1756
same,HELI (P16736) protein level,"timepoint 24, DE",0.3389
same,IR01 (P09710) protein level,"timepoint 24, DE",0.274
same,NEC2 (P16791) protein level,"timepoint 24, DE",0.03969
same,RIR1 (P16782) protein level,"timepoint 24, DE",0.09397
same,TRM1 (P16724) protein level,"timepoint 24, DE",0.04087
same,UL4 (P17146) protein level,"timepoint 24, DE",0.03736
same,UL26 (P16762) protein level,"timepoint 24, DE",0.07273
same,UL32 (P08318) protein level,"timepoint 24, DE",0.01952
same,UL34 (P16812) protein level,"timepoint 24, DE",0.1137
same,UL38 (P16779) protein level,"timepoint 24, DE",0.9755
same,UL44 (P16790) protein level,"timepoint 24, DE",0.06474
same,UL48 (P16785) protein level,"timepoint 24, DE",0.01175
same,UL54 (P08546) protein level,"timepoint 24, DE",0.6089
same,UL71 (P16823) protein level,"timepoint 24, DE",0.439
same,UL78 (P16751) protein level,"timepoint 24, DE",0.9755
same,UL84 (P16727) protein level,"timepoint 24, DE",0.1012
same,UL95 (P16801) protein level,"timepoint 24, DE",0.07625
same,UL96 (P16787) protein level,"timepoint 24, DE",0.387
same,UL97 (P16788) protein level,"timepoint 24, DE",0.2812
same,UL98 (P16789) protein level,"timepoint 24, DE",0.3005
same,UL102 (P16827) protein level,"timepoint 24, DE",0.5343
same,UL104 (P16735) protein level,"timepoint 24, DE",0.03903
same,UL112/UL113 (P17151) protein level,"timepoint 24, DE",0.5236
same,UL114 (P16769) protein level,"timepoint 24, DE",0.6704
same,UL119/UL118 (P16739) protein level,"timepoint 24, DE",0.2198
same,UL128 (P16837) protein level,"timepoint 24, DE",0.1113
same,US8 (P09730) protein level,"timepoint 24, DE",1.057
same,US9 (P09729) protein level,"timepoint 24, DE",0.627
same,US12 (P09721) protein level,"timepoint 24, DE",1.672
same,US13 (P09720) protein level,"timepoint 24, DE",0.6838
same,US14 (P09719) protein level,"timepoint 24, DE",0.3957
same,US18 (P69334) protein level,"timepoint 24, DE",0.5335
same,US22 (P09722) protein level,"timepoint 24, DE",0.3966
same,US23 (P09701) protein level,"timepoint 24, DE",0.6776
same,US24 (P09700) protein level,"timepoint 24, DE",0.62
same,US34 (P09709) protein level,"timepoint 24, DE",0.7981
same,gB (P06473) protein level,"timepoint 24, DE",0.1137
same,IRS1 (P09715) protein level,"timepoint 24, IE",0.3939
same,TRS1 (P09695) protein level,"timepoint 24, IE",0.2642
same,UL13 (P16755) protein level,"timepoint 24, IE",2.055
same,UL36 (P16767) protein level,"timepoint 24, IE",1.41
same,UL37 (P16778) protein level,"timepoint 24, IE",1.032
same,UL122 (P19893) protein level,"timepoint 24, IE",0.05997
same,UL123 (P13202) protein level,"timepoint 24, IE",0.9831
same,CVC1 (P16799) protein level,"timepoint 24, L",0.06119
same,IR11 (P16809) protein level,"timepoint 24, L",0.1044
same,MCP (P16729) protein level,"timepoint 24, L",0.004968
same,SCP (Q7M6N6) protein level,"timepoint 24, L",0.004248
same,TRM2 (P16792) protein level,"timepoint 24, L",0.01981
same,UL22A (P16845) protein level,"timepoint 24, L",0.04382
same,UL25 (P16761) protein level,"timepoint 24, L",0.03889
same,UL29 (P16764) protein level,"timepoint 24, L",0.8336
same,UL31 (P16848) protein level,"timepoint 24, L",0.3279
same,UL43 (P16781) protein level,"timepoint 24, L",0.06088
same,UL52 (P16793) protein level,"timepoint 24, L",0.01567
same,UL80 (P16753) protein level,"timepoint 24, L",0.0363
same,UL82 (P06726) protein level,"timepoint 24, L",0.1843
same,UL88 (P16731) protein level,"timepoint 24, L",0.03831
same,UL94 (P16800) protein level,"timepoint 24, L",0.08626
same,UL99 (P13200) protein level,"timepoint 24, L",0.0296
same,UL103 (P16734) protein level,"timepoint 24, L",0.3578
same,UL117 (P16770) protein level,"timepoint 24, L",0.4362
same,gH (P12824) protein level,"timepoint 24, L",0.04925
same,gL (P16832) protein level,"timepoint 24, L",0.03727
same,gM (P16733) protein level,"timepoint 24, L",0.03485
same,gN (P16795) protein level,"timepoint 24, L",0.1564
same,IR12 (P16810) protein level,"timepoint 24, LL",0.06811
same,TRX1 (P16783) protein level,"timepoint 24, LL",0.0077
same,TRX2 (P16728) protein level,"timepoint 24, LL",0.005245
same,UL24 (P16760) protein level,"timepoint 24, LL",0.1137
same,UL40 (P16780) protein level,"timepoint 24, LL",0.6403
same,UL47 (P16784) protein level,"timepoint 24, LL",0.008892
same,UL69 (P16749) protein level,"timepoint 24, LL",0.2203
same,UL70 (P17149) protein level,"timepoint 24, LL",0.1882
same,UL83 (P06725) protein level,"timepoint 24, LL",0.04505
same,UL132 (P69338) protein level,"timepoint 24, LL",0.1044
same,US15 (P09718) protein level,"timepoint 24, LL",1.318
same,CVC2 (P16726) protein level,"timepoint 48, DE",0.02711
same,DBP (P17147) protein level,"timepoint 48, DE",0.3215
same,HELI (P16736) protein level,"timepoint 48, DE",0.633
same,IR01 (P09710) protein level,"timepoint 48, DE",0.3157
same,NEC2 (P16791) protein level,"timepoint 48, DE",0.07071
same,RIR1 (P16782) protein level,"timepoint 48, DE",0.1157
same,TRM1 (P16724) protein level,"timepoint 48, DE",0.1031
same,UL4 (P17146) protein level,"timepoint 48, DE",0.07128
same,UL26 (P16762) protein level,"timepoint 48, DE",0.08021
same,UL32 (P08318) protein level,"timepoint 48, DE",0.02022
same,UL34 (P16812) protein level,"timepoint 48, DE",0.07906
same,UL35 (P16766) protein level,"timepoint 48, DE",0.007792
same,UL38 (P16779) protein level,"timepoint 48, DE",0.8139
same,UL44 (P16790) protein level,"timepoint 48, DE",0.08914
same,UL48 (P16785) protein level,"timepoint 48, DE",0.03443
same,UL54 (P08546) protein level,"timepoint 48, DE",0.7178
same,UL71 (P16823) protein level,"timepoint 48, DE",0.3459
same,UL78 (P16751) protein level,"timepoint 48, DE",0.7134
same,UL84 (P16727) protein level,"timepoint 48, DE",0.07575
same,UL95 (P16801) protein level,"timepoint 48, DE",0.1437
same,UL96 (P16787) protein level,"timepoint 48, DE",0.2583
same,UL97 (P16788) protein level,"timepoint 48, DE",0.1726
same,UL98 (P16789) protein level,"timepoint 48, DE",0.3796
